“And” between values parts separate entries of the source, which are not always exact repeats. Identical values can stand only once. Bridge positions count the residues as written; N and C are the ends. Peptide text beside a SMILES is read from it.
Experiments:
[1] = test system: POPC/POPE (80:20) model membrane; assay: Membrane binding to POPC/POPE lipid bilayers by surface plasmon resonance (SPR); details: BIAcore T200, L1 chip, POPC/POPE (80:20) bilayer, 10 mM HEPES, 150 mM NaCl; for P/L Max, peptide-to-lipid maximum binding value: pH 7.4, injection 180 s, dissociation 600 s, nonlinear regression; for Kd: pH 7.4, nonlinear regression, read-out: KD, peptide concentration required to achieve half-maximum binding at equilibrium
Description: Cyclotides are reported to exert their biological activities via membrane binding, particularly by selective binding to lipids containing phosphatidylethanolamine (PE) headgroups. Therefore, to evaluate the functional impact of the single mutation on bracelet cyclotides, the membrane-binding ability of these variants towards PE-containing lipid bilayers was examined using surface plasmon resonance (SPR). The model membrane comprising 80% 1-palmitoyloleoyl-phosphatidylcholine (POPC) and 20% 1-palmitoyloleoyl-phosphatidylethanolamine (POPE) was used. Binding affinity was evaluated by the peptide-to-lipid maximum binding value (P/L max, mol/mol) and the peptide concentration required to achieve half-maximum binding at equilibrium (KD value, μM). […] The negative effect of the [I11G] bracelet cyclotide mutation on lipid binding was expected, as the mutation reduces surface hydrophobicity, a previously reported determinant of membrane binding. The SPR dose-response curves and sensorgrams are shown in Figure S4 in Supplementary Material.
The binding affinity of bracelet cyclotides and their variants toward lipid bilayers was studied using SPR, as described previously. Two synthetic lipids, 1-palmitoyl-2-oleoyl-glycero-3-phosphocholine (POPC) and 1-palmitoyl-2-oleoyl-sn-glycero-3-phosphoethanolamine (POPE), were purchased from Avanti Polar Lipids (USA). Briefly, homogenous, small, unilamellar vesicles composed of POPC/POPE (80:20, mol/mol) were obtained by extruding the vesicle suspension through a 50-nm pore size polycarbonate membrane. L1 sensor chips and BIAcore T200 instrument were used (Cytiva, Marlborough, MA, USA). After the lipid was loaded and formed a bilayer membrane on the L1 chip, peptide solutions were injected over the lipid surface for 180 s and the dissociation was monitored for 600 s. Peptides were tested at concentrations ranging from 4–32 μM. Peptide-to-lipid molar ratio and KD values were calculated by nonlinear regression using GraphPad Prism software (version 8.3.1). Peptide solutions and lipid vesicles were prepared in HEPES buffer (10 mM HEPES, 150 mM NaCl, pH 7.4, filtered) for SPR studies.

[2] = test system: HeLa cells; assay: Cytotoxicity against HeLa cells, resazurin assay; type: cell-based; details: 5000 cells/well, 24-h incubation with peptide, then resazurin 18 h, triplicate, mean ± SEM
Procedure: To further confirm the activity of these mutants, their cytotoxicity against HeLa cancer cells was evaluated along with wild-type bracelet cyclotides. […] Of the four [I11G] mutants, the hyen D analogue had the highest activity, possibly because hyen D has one more hydrophobic residue in loop 3 compared to the other three cyclotides, which may contribute to its higher lipid-binding capacity (P/L max = 0.37) and help offset the hydrophobicity loss caused by the [I11G] mutation.
The cytotoxicity of the peptides was evaluated using the resazurin assay, as described previously. HeLa cells were seeded at 5000 cells/well in a 96-well, flat-bottomed plate one day prior to the experiments. Peptide solutions were prepared in water and incubated with HeLa cells at concentrations ranging from 16 to 0.125 μM or 8 to 0.063 μM in triplicate (final concentrations). Water and 1% Triton X-100 (TX) were applied as negative and positive control, respectively. After 24-h incubation, 10 μL of resazurin (0.05%, w/v) was added and incubated with cells for another 18 h. The absorbance was measured at 540 and 620 nm on a microplate reader (Infinite M1000 Pro microplate reader, Tecan, Switzerland). The percentage of cell death was quantified by calculating the absorbance ratio, R (R = absorbance at 620/540), and applying the following equation: % Cell death = (Rsample − RH2O)/(RTX − RH2O) × 100. Data were analyzed with GraphPad Prism software (version 8.3.1) using Specific binding with Hill slope algorithm.

| Structure (SMILES) | P/L Max, peptide-to-lipid maximum binding value [1] | Kd [1] [µM] | CC50 on HeLa (half maximum cytotoxic concentration) [2] [µM] |
| --- | --- | --- | --- |
| CC[C@H](C)[C@@H]1NC(=O)[C@H](C)NC(=O)[C@H](C)NC(=O)[C@H]([C@@H](C)O)NC(=O)[C@H](Cc2ccccc2)NC(=O)[C@@H]2CSSC[C@@H]3NC(=O)[C@H](C(C)C)NC(=O)[C@H](CCCCN)NC(=O)[C@H](CO)NC(=O)[C@H](CCCCN)NC(=O)[C@@H]4CSSC[C@H](NC(=O)[C@H](CO)NC(=O)[C@H](CCC(=O)O)NC(=O)CNC(=O)[C@H](CSSC[C@H](NC(=O)CNC1=O)C(=O)N[C@@H](CO)C(=O)N4)NC(=O)[C@@H]1CCCN1C(=O)[C@H](Cc1ccccc1)NC(=O)CNC(=O)[C@H](CC(N)=O)NC(=O)[C@H](CCCCN)NC(=O)[C@H](Cc1ccc(O)cc1)NC3=O)C(=O)N[C@@H](C(C)C)C(=O)N[C@@H](Cc1ccc(O)cc1)C(=O)N[C@@H]([C@@H](C)CC)C(=O)N1CCC[C@H]1C(=O)N2 [hyen D, reference compound] (cyclo(AAIGCSCKSKVCYKNGFPCGESCVYIPCFT); disulfide 5-19, 7-23, 12-28) | 0.37 mol/mol and 0.37 ± 0.01 mol/mol | 4.48 ± 0.17 | 0.85 ± 0.03 |
| CC[C@H](C)[C@@H]1NC(=O)[C@@H]2CSSC[C@@H]3NC(=O)[C@H](C(C)C)NC(=O)[C@H](CCCCN)NC(=O)[C@H](CC(=O)O)NC(=O)[C@H]([C@@H](C)O)NC(=O)[C@@H]4CSSC[C@H](NC(=O)[C@H](CO)NC(=O)[C@H](CCC(=O)O)NC(=O)CNC(=O)[C@H](CSSC[C@H](NC(=O)CNC(=O)[C@H]([C@@H](C)CC)NC(=O)[C@H](C(C)C)NC(=O)CNC(=O)[C@H](CO)NC1=O)C(=O)N[C@@H](CO)C(=O)N4)NC(=O)[C@@H]1CCCN1C(=O)[C@H]([C@@H](C)O)NC(=O)CNC(=O)[C@H](CC(N)=O)NC(=O)[C@H](CC(C)C)NC(=O)[C@H](Cc1ccc(O)cc1)NC3=O)C(=O)N[C@@H](C(C)C)C(=O)N[C@@H](Cc1ccc(O)cc1)C(=O)N[C@@H]([C@@H](C)CC)C(=O)N1CCC[C@H]1C(=O)N2 [kB5, kalata B5, reference compound] (cyclo(CGESCVYIPCISGVIGCSCTDKVCYLNGTP); disulfide 1-17, 5-19, 10-24) | 0.22 ± 0.00 mol/mol | 5.02 ± 0.17 | 3.11 ± 0.20 |

Source: paper PMC8467136, “Enabling Efficient Folding and High-Resolution Crystallographic Analysis of Bracelet Cyclotides” (Molecules, 2021)
